Laboratory results as given in article PMC6099728, “Investigation of Hydro-Lipophilic Properties of N-Alkoxyphenylhydroxynaphthalenecarboxamides” (Molecules : A Journal of Synthetic Chemistry and Natural …, 2018).

Assay: Lipophilicity determination by RP-HPLC (capacity factor k / logk)
Format: physicochemical
Conditions: for logk: isocratic MeOH 72%/H2O 28%, C18 column, 40 °C; for πB (distributive parameter π calculated from logk) / πC (distributive parameter π calculated from logk) / πA (distributive parameter π calculated from logk): π = logkS − logkU; for πB (distributive parameter π calculated from logk): unsubstituted 1b as reference; for πC (distributive parameter π calculated from logk): unsubstituted 1c as reference; for πA (distributive parameter π calculated from logk): unsubstituted 1a as reference
Source text: A HPLC separation module Waters Alliance 2695 XE equipped with a Waters Dual Absorbance Detector 2486 (Waters Corp., Milford, MA, USA) was used. A chromatographic column Symmetry® C18 5 µm, 4.6 × 250 mm, Part No. W21751W016 (Waters Corp.) was used. The HPLC separation process was monitored by Empower® 3 Chromatography Manager Software (Waters Corp.). Isocratic elution by a mixture of MeOH p.a. (72%) and H2O-HPLC Mili-Q grade (28%) as a mobile phase was used. The total flow of the column was 1.0 mL/min, the injection was 20 μL, the column temperature was 40 °C, and the sample temperature was 10 °C. A detection wavelength of 210 nm was chosen. The KI methanolic solution was used for the determination of dead time (tD). Retention times (tR) were measured in minutes. Capacity factors k were calculated using the Empower® 3 Chromatography Manager Software according to the formula k = (tR − tD)/tD, where tR is the retention time of the solute, while tD is the dead time obtained using an unretained analyte. Each experiment was repeated three times. Logk, which was calculated from the capacity factor k, is used as the lipophilicity index converted to the logP scale.

Structure (SMILES)	logk (series B)	πB (distributive parameter π calculated from logk) (series B)	logk (series C)	πC (distributive parameter π calculated from logk) (series C)	logk (series A)	πA (distributive parameter π calculated from logk) (series A)
CCCOc1cccc(NC(=O)c2ccc3ccccc3c2O)c1 [9b]	1.0215	0.69	–	–	–	–
COc1ccccc1NC(=O)c1ccc2ccccc2c1O [2b]	0.8593	0.09	–	–	–	–
O=C(Nc1ccccc1)c1ccc2ccccc2c1O [1b]	0.6755	0	–	–	–	–
CC(C)Oc1cccc(NC(=O)c2c(O)ccc3ccccc23)c1 [15c]	–	–	0.2214	0.57	–	–
CC(C)Oc1cccc(NC(=O)c2ccc3ccccc3c2O)c1 [15b]	0.9355	0.61	–	–	–	–
CCCCOc1ccc(NC(=O)c2ccc3ccccc3c2O)cc1 [13b]	1.1537	1.08	–	–	–	–
CCCOc1ccccc1NC(=O)c1c(O)ccc2ccccc12 [8c]	–	–	0.6639	0.73	–	–
CCCOc1ccc(NC(=O)c2ccc3ccccc3c2O)cc1 [10b]	0.9588	0.75	–	–	–	–
CCOc1cccc(NC(=O)c2c(O)ccc3ccccc23)c1 [6c]	–	–	0.1175	0.34	–	–
CCOc1ccccc1NC(=O)c1cc2ccccc2cc1O [5a]	–	–	–	–	0.5570	0.40
CCCOc1ccccc1NC(=O)c1ccc2ccccc2c1O [8b]	1.3103	0.74	–	–	–	–
COc1ccccc1NC(=O)c1c(O)ccc2ccccc12 [2c]	–	–	0.2518	0.05	–	–
CCC(C)Oc1cccc(NC(=O)c2cc3ccccc3cc2O)c1 (stereo not drawn) [18a]	–	–	–	–	0.8670	0.95
O=C(Nc1ccccc1)c1c(O)ccc2ccccc12 [1c]	–	–	−0.0581	0	–	–
CC(C)Oc1ccccc1NC(=O)c1c(O)ccc2ccccc12 [14c]	–	–	0.6145	0.66	–	–
CC(C)Oc1ccc(NC(=O)c2c(O)ccc3ccccc23)cc1 [16c]	–	–	0.1619	0.55	–	–
CCCCOc1ccc(NC(=O)c2c(O)ccc3ccccc23)cc1 [13c]	–	–	0.4604	1.05	–	–
COc1ccccc1NC(=O)c1cc2ccccc2cc1O [2a]	–	–	–	–	0.3982	0.09
COc1ccc(NC(=O)c2c(O)ccc3ccccc23)cc1 [4c]	–	–	−0.1149	−0.19	–	–

Structure (SMILES)	logk (series B)	πB (distributive parameter π calculated from logk) (series B)	logk (series C)	πC (distributive parameter π calculated from logk) (series C)	logk (series A)	πA (distributive parameter π calculated from logk) (series A)
O=C(Nc1ccccc1)c1cc2ccccc2cc1O [1a]	–	–	–	–	0.3927	0
CCC(C)Oc1ccc(NC(=O)c2c(O)ccc3ccccc23)cc1 (stereo not drawn) [19c]	–	–	0.3621	0.91	–	–
CC(C)Oc1cccc(NC(=O)c2cc3ccccc3cc2O)c1 [15a]	–	–	–	–	0.6723	0.61
CCC(C)Oc1ccccc1NC(=O)c1c(O)ccc2ccccc12 (stereo not drawn) [17c]	–	–	0.7927	0.98	–	–
CC(C)Oc1ccc(NC(=O)c2ccc3ccccc3c2O)cc1 [16b]	0.8648	0.59	–	–	–	–
CCOc1ccc(NC(=O)c2c(O)ccc3ccccc23)cc1 [7c]	–	–	0.0542	0.27	–	–
CCCOc1cccc(NC(=O)c2c(O)ccc3ccccc23)c1 [9c]	–	–	0.3209	0.65	–	–
CCC(C)Oc1ccccc1NC(=O)c1ccc2ccccc2c1O (stereo not drawn) [17b]	1.4424	1.00	–	–	–	–
CC(C)Oc1ccccc1NC(=O)c1cc2ccccc2cc1O [14a]	–	–	–	–	0.6360	0.66
CCOc1ccc(NC(=O)c2cc3ccccc3cc2O)cc1 [7a]	–	–	–	–	0.4916	0.15
CCOc1ccccc1NC(=O)c1ccc2ccccc2c1O [5b]	1.0940	0.40	–	–	–	–
COc1cccc(NC(=O)c2ccc3ccccc3c2O)c1 [3b]	0.6828	0.04	–	–	–	–
CCOc1ccc(NC(=O)c2ccc3ccccc3c2O)cc1 [7b]	0.7700	0.15	–	–	–	–
CCOc1cccc(NC(=O)c2cc3ccccc3cc2O)c1 [6a]	–	–	–	–	0.5682	0.36
CCC(C)Oc1cccc(NC(=O)c2ccc3ccccc3c2O)c1 (stereo not drawn) [18b]	1.1291	0.95	–	–	–	–
CCCCOc1ccccc1NC(=O)c1ccc2ccccc2c1O [11b]	1.5122	1.08	–	–	–	–
CCOc1ccccc1NC(=O)c1c(O)ccc2ccccc12 [5c]	–	–	0.4759	0.39	–	–
CCC(C)Oc1cccc(NC(=O)c2c(O)ccc3ccccc23)c1 (stereo not drawn) [18c]	–	–	0.4129	0.91	–	–
CCCCOc1ccccc1NC(=O)c1cc2ccccc2cc1O [11a]	–	–	–	–	0.9136	1.08

Structure (SMILES)	logk (series B)	πB (distributive parameter π calculated from logk) (series B)	logk (series C)	πC (distributive parameter π calculated from logk) (series C)	logk (series A)	πA (distributive parameter π calculated from logk) (series A)
CCCCOc1cccc(NC(=O)c2c(O)ccc3ccccc23)c1 [12c]	–	–	0.5161	1.00	–	–
CCCOc1cccc(NC(=O)c2cc3ccccc3cc2O)c1 [9a]	–	–	–	–	0.7672	0.69
CC(C)Oc1ccc(NC(=O)c2cc3ccccc3cc2O)cc1 [16a]	–	–	–	–	0.6017	0.59
CCCOc1ccccc1NC(=O)c1cc2ccccc2cc1O [8a]	–	–	–	–	0.7221	0.74
COc1cccc(NC(=O)c2c(O)ccc3ccccc23)c1 [3c]	–	–	0.1106	0.02	–	–
CCCCOc1cccc(NC(=O)c2ccc3ccccc3c2O)c1 [12b]	1.2088	1.02	–	–	–	–
CCCCOc1ccc(NC(=O)c2cc3ccccc3cc2O)cc1 [13a]	–	–	–	–	0.8961	1.08
CCC(C)Oc1ccccc1NC(=O)c1cc2ccccc2cc1O (stereo not drawn) [17a]	–	–	–	–	0.7956	1.00
COc1ccc(NC(=O)c2cc3ccccc3cc2O)cc1 [4a]	–	–	–	–	0.3374	−0.15
CCCOc1ccc(NC(=O)c2c(O)ccc3ccccc23)cc1 [10c]	–	–	0.2622	0.72	–	–
CCOc1cccc(NC(=O)c2ccc3ccccc3c2O)c1 [6b]	0.8353	0.36	–	–	–	–
COc1cccc(NC(=O)c2cc3ccccc3cc2O)c1 [3a]	–	–	–	–	0.4055	0.04
CCCOc1ccc(NC(=O)c2cc3ccccc3cc2O)cc1 [10a]	–	–	–	–	0.6963	0.75
CCC(C)Oc1ccc(NC(=O)c2ccc3ccccc3c2O)cc1 (stereo not drawn) [19b]	1.0518	0.94	–	–	–	–
COc1ccc(NC(=O)c2ccc3ccccc3c2O)cc1 [4b]	0.6239	−0.15	–	–	–	–
CCCCOc1ccccc1NC(=O)c1c(O)ccc2ccccc12 [11c]	–	–	0.8578	1.04	–	–
CCCCOc1cccc(NC(=O)c2cc3ccccc3cc2O)c1 [12a]	–	–	–	–	0.9711	1.02
CC(C)Oc1ccccc1NC(=O)c1ccc2ccccc2c1O [14b]	1.2556	0.66	–	–	–	–
CCC(C)Oc1ccc(NC(=O)c2cc3ccccc3cc2O)cc1 (stereo not drawn) [19a]	–	–	–	–	0.7977	0.09
